pIC50: −log10 of the molar value. The source made the active and inactive calls. No cut-off for these calls is given here.
What was measured:
[1] = system: Influenza A virus (A/Anhui/1/2005(H5N1)); test: Inhibition of Influenza A virus (A/Anhui/1/2005(H5N1) Neuraminidase using MUNANA as substrate at 10 uM preincubated for 5 to 15 mins followed by substrate addition and measured after 30 mins by fluorescence spectrophotometric method; conditions: time 35-45 min
[2] = system: Influenza A virus (A/Anhui/1/2005(H5N1)); test: Inhibition of Influenza A virus (A/Anhui/1/2005(H5N1) Neuraminidase using MUNANA as substrate at 100 uM preincubated for 5 to 15 mins followed by substrate addition and measured after 30 mins by fluorescence spectrophotometric method; conditions: time 35-45 min
[3] = Oral bioavailability in ferret; format: ADME, organism-based, Mustela putorius furo; conditions: in vivo
[4] = Inhibition of Influenza A virus (A/Anhui/1/2005(H5N1) Neuraminidase using MUNANA as substrate preincubated for 5 to 15 mins followed by substrate addition and measured after 30 mins by fluorescence spectrophotometric method
[5] = Oral bioavailability in rat; format: ADME, organism-based; conditions: in vivo
[6] = Inhibition of Influenza A virus (A/Babol/36/2005 (H3N2)) Neuraminidase using MUNANA as substrate preincubated for 5 to 15 mins followed by substrate addition and measured after 30 mins by fluorescence spectrophotometric method
[7] = AUC in Sprague-Dawley rat at 10 mg/kg, iv measured for 24 hrs by LC-MS/MS analysis; format: ADME, organism-based; set-up: dose 10 mg/kg, time 24 hrs; conditions: in vivo
[8] = AUC in Sprague-Dawley rat at 50 mg/kg, po measured for 24 hrs by LC-MS/MS analysis; format: ADME, organism-based; set-up: time 24 hrs, dose 50 mg/kg; conditions: in vivo
[9] = Tmax in Sprague-Dawley rat at 50 mg/kg, po by LC-MS/MS analysis; format: ADME, organism-based; conditions: in vivo
[10] = Cmax in Sprague-Dawley rat at 50 mg/kg, po measured for 24 hrs by LC-MS/MS analysis; format: ADME, organism-based; set-up: route oral, dose 50 mg/kg, time 24 hrs; conditions: in vivo
[11] = Half life in Sprague-Dawley rat at 50 mg/kg, po measured for 24 hrs by LC-MS/MS analysis; format: ADME, organism-based; conditions: in vivo
[12] = Bioavailability in Sprague-Dawley rat at 10 mg/kg, iv measured for 24 hrs by LC-MS/MS analysis; format: ADME, organism-based; conditions: in vivo
[13] = Oral bioavailability in Sprague-Dawley rat at 50 mg/kg measured for 24 hrs by LC-MS/MS analysis; format: ADME, organism-based; conditions: in vivo
[14] = Inhibition of Influenza A virus (A/California/04/2009 (H1N1)) Neuraminidase using MUNANA as substrate preincubated for 5 to 15 mins followed by substrate addition and measured after 30 mins by fluorescence spectrophotometric method
[15] = human, plasma
[16] = human, plasma, 2 h
in vivo = conditions: Sprague-Dawley, rat, iv, 10 mg/kg
in vitro [17] = conditions: mouse, liver microsomes
in vitro [18] = conditions: mouse, liver microsomes; remark: listed apart in the source
in vitro [19] = conditions: rat, liver microsomes
in vitro [20] = conditions: rat, liver microsomes; remark: listed apart in the source
in vitro [21] = conditions: human, liver microsomes
in vitro [22] = conditions: human, liver microsomes; remark: listed apart in the source
in vitro [23] = conditions: human, plasma
in vitro [24] = conditions: human, plasma; remark: listed apart in the source
in vitro [25] = conditions: human, plasma; remark: listed apart in the source
[26] = AUC in Sprague-Dawley rat at 10 mg/kg, po measured for 24 hrs by LC-MS/MS analysis; format: ADME, organism-based; set-up: time 24 hrs, dose 10 mg/kg; conditions: in vivo
[27] = Tmax in Sprague-Dawley rat at 10 mg/kg, po by LC-MS/MS analysis; format: ADME, organism-based; conditions: in vivo
[28] = Cmax in Sprague-Dawley rat at 10 mg/kg, po measured for 24 hrs by LC-MS/MS analysis; format: ADME, organism-based; set-up: route oral, dose 10 mg/kg, time 24 hrs; conditions: in vivo

With `CCC(CC)O[C@@H]1C=C(C(=O)O)C[C@H](NC(=O)NCc2ccc(C#N)cc2)[C@H]1NC(C)=O` the inhibition [1] was “inactive” and the inhibition [2] was 32.5%.
For `CCC(CC)O[C@@H]1C=C(C(=O)O)C[C@H](NC(=S)NC2CC2)[C@H]1NC(C)=O`, the inhibition [1] was 8.7% and the inhibition [2] was 29.2%.
In the case of `CCC(CC)O[C@@H]1C=C(C(=O)O)C[C@H](NC(=O)NCCc2ccccc2)[C@H]1NC(C)=O`, the inhibition [1] was “inactive” and the inhibition [2] was 17.7%.
With `CCC(CC)O[C@@H]1C=C(C(=O)O)C[C@H](NC(=O)NC(C)C)[C@H]1NC(C)=O` the inhibition [1] was 8.3% and the inhibition [2] was 32.3%.
In the case of `CCC(CC)[C@H](NC(C)=O)[C@@H]1[C@H](O)[C@@H](C(=O)O)C[C@H]1NC(=N)N` [PERAMIVIR ANHYDROUS], the bioavailability [3] was 2.5%.
`CCC(CC)O[C@@H]1C=C(C(=O)O)C[C@H](NC(=O)Nc2cccc(Br)c2)[C@H]1NC(C)=O` gave a pIC50 ([4]; read-out: IC50) of 4.77.
`CO[C@@H]([C@@H]1OC(C(=O)O)=C[C@H](NC(=N)N)[C@H]1NC(C)=O)[C@H](O)CO` gave a bioavailability [5] of 3.5%.
Work on `CCC(CC)O[C@@H]1C=C(C(=O)O)C[C@H](NC(=N)N)[C@H]1NC(C)=O` yielded a bioavailability [5] of 2.1%.
`CCC(CC)O[C@@H]1C=C(C(=O)O)C[C@H](NC(=O)Nc2ccccc2)[C@H]1NC(C)=O` showed an inhibition [1] of 17.6% and an inhibition [2] of 32.6%.
For `CCC(CC)O[C@@H]1C=C(C(=O)O)C[C@H](NC(N)=O)[C@H]1NC(C)=O`, the pIC50 ([4]; read-out: IC50) was 6.60, the pIC50 [6] was 6.77 and the AUC at 24 h [7] was 23200 ng·h/mL. It also gave an AUC at 24 h [8] of 10300 ng·h/mL, a Tmax [9] of 0.75 h and a Cmax [10] of 3670 ng/mL. For the same compound, the half-life [11] was 9.95 h, the F [12] was 100% and the bioavailability [13] was 8.8%. The pIC50 [14] was 5.06, the Stabilty [15] was 100% and the Stabilty [16] was 122.6%. The half-life at 24 h (in vivo) was 2.07 h, the remaining at 1 h (in vitro [17]) was 100% and the half-life at 1 h (in vitro [18]) was over 2.42 h. It also gave a remaining at 1 h (in vitro [19]) of 85.5%, a half-life at 1 h (in vitro [20]) of over 2.42 h and a remaining at 1 h (in vitro [21]) of 99.1%. It also gave a half-life at 1 h (in vitro [22]) of over 2.42 h, a remaining at 10 min (in vitro [23]) of 101% and a remaining at 0.5 h (in vitro [24]) of 99.1%. For the same compound, the remaining at 1 h (in vitro [25]) was 102%.
`CCC(CC)O[C@@H]1C=C(C(=O)O)C[C@H](NC(=S)Nc2ccc(C)c(C)c2)[C@H]1NC(C)=O` gave an inhibition [1] of 15.3% and an inhibition [2] of 52.4%.
`CCC(CC)O[C@@H]1C=C(C(=O)O)C[C@H](NC(=O)Nc2cccc([N+](=O)[O-])c2)[C@H]1NC(C)=O` showed an inhibition [1] of 6.5% and an inhibition [2] of 36.9%.
With `CCC(CC)O[C@@H]1C=C(C(=O)O)C[C@H](NC(=S)NCc2ccc(F)cc2)[C@H]1NC(C)=O` the inhibition [1] was “inactive” and the inhibition [2] was 21%.
Compound `O=C(O)Cc1ccccc1Nc1c(Cl)cccc1Cl` [DICLOFENAC] has a half-life at 1 h (in vitro [18]) of 0.735 h, a half-life at 1 h (in vitro [20]) of 0.2 h and a half-life at 1 h (in vitro [22]) of 0.195 h.
`CC(C)[N+](C)(CCOC(=O)C1c2ccccc2Oc2ccccc21)C(C)C.[Br-]` [PROPANTHELINE BROMIDE] gave a Stabilty [15] of 100% and a remaining at 10 min (in vitro [23]) of 68.2%.
In the case of `CCC(CC)O[C@@H]1C=C(C(=O)O)C[C@H](NC(=S)NCc2ccc(Br)cc2)[C@H]1NC(C)=O`, the inhibition [1] was 17% and the inhibition [2] was 59.6%.
In the case of `CCC(CC)O[C@@H]1C=C(C(=O)O)C[C@H](NC(=O)N2CCCCC2)[C@H]1NC(C)=O`, the inhibition [1] was 25.6% and the inhibition [2] was 56.4%.
With `CCC(CC)O[C@@H]1C=C(C(=O)O)C[C@H](NC(=O)NCc2ccc(OC)cc2)[C@H]1NC(C)=O` the inhibition [1] was “inactive” and the inhibition [2] was 36.5%.
Work on `CCC(CC)O[C@@H]1C=C(C(=O)O)C[C@H](N)[C@H]1NC(C)=O` [OSELTAMIVIR CARBOXYLATE] yielded a pIC50 [4] of 6.68, a pIC50 [6] of 7.38 and an AUC at 24 h [7] of 8400 ng·h/mL. For the same compound, the F [12] was 100%, the pIC50 [14] was 5.60 and the AUC at 24 h [26] was 300 ng·h/mL. The Tmax [27] was 4 h, the Cmax [28] was 30 ng/mL and the half-life at 24 h (in vivo) was 1.6 h.
For `CCC(CC)O[C@@H]1C=C(C(=O)O)C[C@H](NC(=O)Nc2cc(OC)c(OC)c(OC)c2)[C@H]1NC(C)=O`, the inhibition [1] was “inactive” and the inhibition [2] was 16.4%.
For `CCC(CC)O[C@@H]1C=C(C(=O)O)C[C@H](NC(=S)NCc2cccc(F)c2)[C@H]1NC(C)=O`, the inhibition [1] was “inactive” and the inhibition [2] was 28.1%.
`CCC(CC)O[C@@H]1C=C(C(=O)O)C[C@H](NC(=O)N(C)C)[C@H]1NC(C)=O` gave a pIC50 ([4]; read-out: IC50) of 5.32.
Compound `CCC(CC)O[C@@H]1C=C(C(=O)O)C[C@H](NC(=O)NCc2ccccc2)[C@H]1NC(C)=O` has an inhibition [1] of 6.8% and an inhibition [2] of 35.1%.
For `CCC(CC)O[C@@H]1C=C(C(=O)O)C[C@H](NC(N)=S)[C@H]1NC(C)=O`, the inhibition [1] was 16.9% and the inhibition [2] was 51.3%.
Work on `CCC(CC)O[C@@H]1C=C(C(=O)O)C[C@H](NC(=S)N(C(C)C)C(C)C)[C@H]1NC(C)=O` yielded an inhibition [1] of 20% and an inhibition [2] of 80%.
Work on `CCC(CC)O[C@@H]1C=C(C(=O)O)C[C@H](NC(=O)N(C(C)C)C(C)C)[C@H]1NC(C)=O` yielded an inhibition [1] of 32.3% and an inhibition [2] of 63.1%.
With `CCC(CC)O[C@@H]1C=C(C(=O)O)C[C@H](NC(=S)Nc2ccccc2)[C@H]1NC(C)=O` the inhibition [1] was 16.6% and the inhibition [2] was 47.1%.
With `CCC(CC)O[C@@H]1C=C(C(=O)O)C[C@H](NC(=S)NC)[C@H]1NC(C)=O` the pIC50 ([4]; read-out: IC50) was 4.73.
